In series [1] the test system is L1-Larven von Lucilia sericata. As to the kind of experiment: B-3 action against L1 larvae in larval culture medium. The format is in vivo. The conditions noted are these: 100 ppm, after 4 days. The method, then:
B-3. Wirkung gegen L1-Larven von Lucilia sericata
1 ml einer wässrigen Suspension der zu prüfenden Aktivsubstanz wird so mit 3 ml eines speziellen Larvenzuchtmediums bei ca. 50°C vermischt, dass ein Homogenisat von wahlweise 250 ppm oder 125 ppm Wirkstoffgehalt entsteht. In jede Reagenzglas-Probe werden ca. 30 Lucilia-Larven (L1) eingesetzt. Nach 4 Tagen wird die Mortalitätsrate bestimmt. Die Verbindungen der Formel 1 erzielten mit 250 ppm, die Verbindungen Nr. 1.1, 1.3, 1.15, 1.22, 1.27, 1.35, 1.37, 1.38 und 1.43 bereits bei 100 ppm eine Wirkung von 100 %.

The test system of series [2] is Boophilus microplus (Biarra-Stamm). As to the kind of experiment: B-4 acaricidal action, injection into engorged female ticks. The format is in vivo. The conditions noted are these: dose per tick at which 9 of 10 females lay non-hatching eggs after 30 days. The method, then: B-4. Akarizide Wirkung gegen Boophilus microplus (Biarra-Stamm
Auf einer PVC-Platte wird waagrecht ein Klebstreifen so befestigt, das darauf 10 mit Blut vollgesogene Zecken-Weibchen von Boophilus microplus (Biarra-Stamm) nebeneinander in einer Reihe mit dem Rücken aufgeklebt werden können. Jeder Zecke wird mit einer Injektionsnadel 1 µl einer Flüssigkeit injiziert, die eine 1:1-Mischung von Polyethylenglykol und Aceton darstellt und in der als bestimmte Wirkstoffmenge […] pro Zecke gelöst ist. Kontrolltiere erhalten eine wirkstofffreie Injektion. Nach der Behandlung werden die Tiere unter Normalbedingungen in einem Insektarium bei ca. 28°C und 80 % relativer Luftfeuchtigkeit gehalten, bis die Eiablage erfolgt und die Larven aus den Eiern der Kontrolltiere geschlüpft sind.
Die Aktivität einer geprüften Substanz wird mit der IR90 bestimmt, d.h. es wird jene Wirkstoffdosis ermittelt, bei der noch nach 30 Tagen 9 von 10 Zeckenweibchen (= 90 %) Eier ablegen, die nicht schlupffähig sind.

For series [3], the system named is Haemonchus contortus und Trychostrongylus colubriformis. The series is described as follows: B-5 test on sheep infected with nematodes, worm egg count in faeces. Particulars: single dose. Type of series: in vivo, Schafe. The method, then: B-5. Versuch an mit Nematoden (Haemonchus concortus und Trichostrongylus colubriformis) infizierten Schafen
Der Wirkstoff wird als Suspension formuliert mit einer Magensonde oder durch Injektion in den Pansen eines Schafes gegeben, das mit Haemonchus contortus und Trychostrongylus colubriformis künstlich infiziert worden ist. Pro Dosis werden 1 bis 3 Tiere verwendet. Jedes Schaf wird nur einmal mit einer einzigen Dosis behandelt, und zwar wahlweise mit 2 mg oder 1 mg/kg Körpergewicht. Die Evaluierung erfolgt durch Vergleich der Anzahl der vor und nach Behandlung im Kot der Schafe ausgeschiedenen Wurmeier.
Gleichzeitig und gleichartig infizierte aber unbehandelte Schafe dienen als Kontrolle. Schafe, die mit einer der Verbindungen der Formel I bei 1 mg/kg behandelt wurden, zeigten im Vergleich zu unbehandelten, aber infizierten Vergleichsgruppen keinen Nematodenbefall (= komplette Reduktion der Wurmeier im Kot). […] Schafe, die mit 0,1 mg/kg Köpergewicht der Verbindung Nr. 1.1 (A) und der Verbindung Nr. 1.15 (B) behandelt wurden, zeigten im Vergleich zur Kontrolle eine 77%ige (A) und eine 97Xige (B) Wirkung, während 5-0-(2,3,4,6-Tetra-0-acetyl-1-0-glucanopyranosyl)-milbemycin A3 bei dieser Konzentration unwirksam war.

Consider “5-0-(1-0-Galactopyranosyl)-milbemycin D [1.38]”, for which the “Wirkung (Mortalitätsrate)” value in series [1] came to 100%. In series [2], the IR90 is listed as 0,5 µg.
For the substance “5-0-(2,3,4,6-Tetra-0-acetyl-1-0-glucanopyranosyl)-milbemycin A3 [Tetraacetylglucopyranosyl-milbemycin A3]”, the “Wirkung im Vergleich zur Kontrolle” value in series [3] (0,1 mg/kg Körpergewicht) is given as “unwirksam”. Besides, the “Wirkung (Reduktion der Wurmeier im Kot)” value in series [3] (2 mg/kg) was “annähernd wirkungslos”.

These data come from EP0185623A1, “Milbemycin derivatives for combating insects and parasites” (CIBA-GEIGY AG, priority 1984, dated 1986).
